Test results taken from patent US20160075651A1, “GLYCOLIPID INHIBITION USING IMINOSUGARS” (UNITHER VIROLOGY, LLC, priority 2013, published 2016).
Residue numbers refer to the chain shown, from its start. Read-outs that look alike come from different tables or passages of the source.

Legend:
[1] = target: T1, ceramide glucosyltransferase (Homo sapiens, UniProt Q16739); test: Ceramide glucosyltransferase cellular assay (GM3 reduction in HL60 cells, NP-HPLC); format: cell-based; details: for IC50: 3 days, GM3 peak area
T1 construct: endogenous in cells; host or cells: HL60 cells
T1 sequence (Q16739 1-394): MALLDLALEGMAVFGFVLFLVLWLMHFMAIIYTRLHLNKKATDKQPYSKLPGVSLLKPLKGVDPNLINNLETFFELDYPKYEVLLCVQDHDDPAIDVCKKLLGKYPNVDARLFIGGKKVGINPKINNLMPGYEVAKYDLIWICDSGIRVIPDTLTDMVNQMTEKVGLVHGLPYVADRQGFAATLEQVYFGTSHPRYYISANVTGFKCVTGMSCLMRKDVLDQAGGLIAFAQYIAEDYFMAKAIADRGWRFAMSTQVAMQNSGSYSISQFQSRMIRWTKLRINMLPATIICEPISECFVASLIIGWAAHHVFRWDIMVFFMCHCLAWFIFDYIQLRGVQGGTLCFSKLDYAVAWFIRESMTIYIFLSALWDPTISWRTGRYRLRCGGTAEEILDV

[2] = target: T2, human placental β-glucocerebrosidase (Homo sapiens, UniProt P04062); test: β-Glucocerebrosidase inhibition assay (4-methylumbelliferyl-β-glucoside, fluorogenic); format: biochemical
T2 construct: Human placental β-glucocerebrosidase was isolated and purified; from tissue; host or cells: human placenta
T2 sequence (P04062 40-536): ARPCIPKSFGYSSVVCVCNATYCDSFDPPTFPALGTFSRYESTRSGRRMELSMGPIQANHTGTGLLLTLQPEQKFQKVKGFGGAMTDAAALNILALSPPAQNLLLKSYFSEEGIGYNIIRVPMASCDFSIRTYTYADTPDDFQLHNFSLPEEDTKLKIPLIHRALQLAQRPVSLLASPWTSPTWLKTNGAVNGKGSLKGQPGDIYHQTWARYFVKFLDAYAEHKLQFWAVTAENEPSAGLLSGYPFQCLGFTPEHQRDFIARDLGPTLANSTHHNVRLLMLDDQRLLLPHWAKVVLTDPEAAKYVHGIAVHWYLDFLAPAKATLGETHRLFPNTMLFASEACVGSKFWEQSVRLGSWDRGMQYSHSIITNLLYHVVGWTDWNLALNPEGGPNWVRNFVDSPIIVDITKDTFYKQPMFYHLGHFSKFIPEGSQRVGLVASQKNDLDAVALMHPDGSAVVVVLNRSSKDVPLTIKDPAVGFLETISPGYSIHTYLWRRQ

[3] = target: T3, β-glucocerebrosidase (N370S mutant) (Homo sapiens, UniProt P04062, N409S); test: β-Glucocerebrosidase activation (chaperone) assay in Gaucher N370S cells; format: cell-based; details: 3 days, versus untreated cells
T3 construct: mutant Gaucher lymphoblasts with the most common N370S mutation; endogenous in cells; host or cells: Gaucher (N370S) lymphoblasts
T3 sequence (P04062 40-536 N409S): T2 sequence (P04062 40-536) with N370S

ER alpha glucosidase = test: Free oligosaccharide analysis (measure of ER alpha glucosidase inhibition); format: cell-based; details: FIG. 13, compared with UV-4
Method: Free glucosyl oligosaccharides were measured according to Alonzi et al. Biochem. J. (2008) 409, 571-580.

[4] = tested on: glucosylceramide and lactosylceramide in Huh7.5 cells; test: Cellular glucosylceramide and lactosylceramide measurement in Huh7.5 hepatoma cells (lipidomics); format: cell-based; details: human hepatoma cells (Huh7.5), 10 μM, 4 days
Method: Glycosphingolipids (including GlcCer and LacCer) were measured according to Wolf, C. and Quinn, P. J. Progress in lipid research (2008) 47, 15-36. Briefly, chloroform-methanol extracts of cellular lipids were subjected to HPLC to isolate the glycosphingolipid species from other cellular lipids, then subjected to two-dimentional mass-spectromertry with internal standards in order to quantify particular glycosphingolipid species.
Huh7.5 cells were grown in DMEM supplemented with 100 U/ml penicillin, […] streptomycin, 2 mM L-glutamine, 1×MEM, and 10% FBS. All incubations were at 37° C./5% CO2. The effect of iminosugar treatment on cellular lipid profiles was determined in cells after incubation for 4 days in the presence or absence of iminosugars, at which point they were harvested using trypsin/EDTA, washed 3 times in cold PBS, counted using trypan blue staining, and final cell pellets were resuspended in methanol:acetone (vol 1:1) prior to lipid profiling, A small volume of each sample was used for total protein estimation using the Bradford protein assay (Bio-Rad).
The methodology has been described in detail previously (Wolf, C., Quinn, P. J., Lipidomics: Practical aspects and applications. Progress in Lipid Research 2008, 47, 15-36: Quinn, P. J., Rainteau, D., Wolf, C., Lipidomics of the red cell in diagnosis of human disorders. Methods Mol Biol 2009, 579, 127-159). […]

IC50 [1] [nM] | IC50 [2] [nM] | Activation fold (@ 1 μM) ([3]; 1 μM) | potency in cells relative to NB-DNJ ([1]; GM3 reduction, versus NB-DNJ (Zavesca)) | IC50 ([2]; human placental enzyme, 0.5 mM 4-MU-β-glucoside, pH 5.2) [nM] | Activation fold at 10 μM ([3]; 10 μM) [fold] | Structure (SMILES) | ER glucosidase inhibitory activity (free oligosaccharide analysis) (ER alpha glucosidase) | inhibition of the cellular glucosylceramide / lactosylceramide pathway [4]
49 ± 5 | 150 ± 30 | 1.7 (@ 1 μM) fold |  |  |  | [N-]=[N+]=Nc1ccc(NCCCCCCN2C[C@H](O)[C@@H](O)[C@H](O)[C@H]2CO)c([N+](=O)[O-])c1 [UV5, N—(N′-{4′-azido-2′-nitrophenyl)-6-aminohexyl)-deoxynojirimycin] |  | 
 |  |  |  |  |  | Cc1c(C)c2c(c(C)c1OCCCCCN1C[C@H](O)[C@@H](O)[C@H](O)[C@H]1CO)CC[C@@](C)(CCC[C@H](C)CCC[C@H](C)CCCC(C)C)O2 [Top-DNJ, tocopheryl-pentyl deoxynojirimycin] | virtually devoid of ER glucosidase inhibitory activity | near-complete inhibition
190 ± 21 |  |  | approximately 100 times | 1850 ± 40 | 2.1 | COCCCCCCCCCN1C[C@H](O)[C@@H](O)[C@H](O)[C@H]1CO [UV4, N-(9-methoxynonyl)deoxynojirimycin] |  | 
